Like-named read-outs stand apart in the source and are kept apart here. Some results are limits rather than exact numbers.

In one data set the test system is MV411 cells xenograft. Briefly: AML xenograft model, combination with Ara-C. The data set is classed as in vivo, CB17 SCID mice. The following applies: AML mice xenograft. The procedure:
CB17 SCID mice were inoculated with MV411 cells at the density of 5×10^6 suspended in PBS and matrigel (1:1). The mice were randomized based on tumor volume into 6 different groups after the tumor reached ˜200 to 500 mm^3. The mice were treated either with vehicle, NU031, NU975 alone or in combination with cytarabine (Ara-C). […] (See FIG. 17).

Another data set relates to DNA damage (rH2AX). As to the kind of experiment: rH2AX staining assay for DNA damage. The data set is classed as cell-based. The procedure: Min9 (NUCC-0176234) was also tested for its ability to cause DNA damage in an rH2AX staining assay. We would not expect cMYC-targeting agents to produce significant DNA damage. Compounds that act directly against DNA such as doxorubicin do however. […] (See FIG. 6).

The next data set concerns the target MYC/Max binding to DNA (Homo sapiens, UniProt P01106). Briefly: Electrophoretic mobility shift assay (EMSA) of MYC/Max binding to DNA. The procedure:
We also tested our best hit compound Min9 (NUCC-0176234) and newly synthesized analogs for effects of these compounds on MYC/Max binding to DNA in electrophoretic mobility shift assays (EMSAs). (See FIG. 5a and FIG. 5b). We expected the active compounds to impair MYC/Max binding to DNA. Several structural analogs of Min9 were tested over multiple doses for inhibiting MYC-DNA binding and we observed a dose-dependent inhibition. (See FIG. 5c).

Data set [1] can be described thus: Potency code of Table 2 (assay not stated).
Data set [2] deals with cMYC wild-type (WT) and cMYC KO line. As to the kind of experiment: Cell viability assay, cMYC wild-type line versus cMYC KO line. The data set is classed as cell-based. The procedure: Min9 (NUCC-0176234) was also tested in a cell viability assay against a cMYC wild-type (WT) and a cMYC KO line.
Data set [3] is described as follows: Pharmacokinetics in mice after IV dosing. The data set is classed as in vivo. The following applies: 5 mg/kg intravenously. The procedure:
The pharmacokinetics of NUCC-176242 and NUCC-176248 were studied in mice by administering a dose of 5 mg/kg intravenously and measuring the plasma concentration versus time. (See FIG. 10).
The pharmacokinetics of NUCC-176242 and NUCC-176248 were studied in mice by administering a dose of 5 mg/kg intravenously and measuring the plasma concentration versus time.

Data set [4] is described as follows: In vitro metabolism with mouse S9 fraction. The data set is classed as in vitro ADME. The procedure:
(§1) In vitro metabolism of NUCC-176242 and NUCC-176248 were tested using mouse liver microsomes and a mouse S9 fraction. (See FIG. 9).
In vitro metabolism of NUCC-176242 and NUCC-176248 were tested using mouse liver microsomes and a mouse S9 fraction.

The subject of data set [5] is MYC WT and MYC KO rat fibroblasts. As to the kind of experiment: Growth inhibition of wild type and MYC knockout rat fibroblasts. The class given is cell-based. From the text: We tested the top 13 active compounds in the first screen assay. […] More than half of the tested compounds show better growth inhibitory effect on MYC WT compared to MYC KO cells.
Data set [6] in a line: In vitro metabolism with mouse liver microsomes. The class given is in vitro ADME. The following applies: % remaining of compound after 60 min treatment with mouse liver microsomes. The procedure: as §1
For orientation: Microsomes from liver hold many membrane-bound enzymes, among them those of drug oxidation.

Data set [7] is described as follows: Plasma protein binding (mouse). The data set is classed as in vitro ADME.
The test system of the next data set is PC12 cells. Briefly: Cell viability / proliferation of PC12 cells (MTS). The class given is cell-based. The procedure: (§2) PC3 prostate cancer cell line with high Myc level and PC12 pheochromocytoma tumor cell line with non functional Max protein, which is not dependent on Myc-Max complex, were phased from ATCC. Cells were plated in 96 well plate at 1000 cells per well, and Myc inhibitor 361 at various concentrations was added to the cells next day. After 3 days of treatment, fresh medium with 361 were added again, and cell viability was measured by MTS assay at day 5 after the treatment. (See FIG. 11).

The subject of the next data set is MycCap cells. Briefly: Cell viability of MycCap cells. The class given is cell-based.
Data set [8] concerns PC3 prostate cancer cell line. As to the kind of experiment: Proliferation assay of PC3 cells (MTS). The following applies: Myc dependent cell line. The class given is cell-based. The procedure: as §2
Data set [9] relates to MycCap tumor. Briefly: MycCap FVB allograft model. The following applies: mouse prostate cancer allograft, intra-peritoneally. The class given is in vivo, FVB mice. The procedure:
FVB mice were inoculated with 1×10^6 of MycCap cells in 100 ul of matrigel subcutaneously on both flanks of the mice. When tumor size reached average size of 150 mm^3, mice were randomized based on tumor volume to 2 groups. Mice were administered with 50 mg/kg of 361 or vehicle(Veh) twice daily intra-peritoneally for two days. The treatment was suspended for 10 day, and initiated the treatment with a lower dose […] daily for another 9 days. Tumor size was measured twice a week during the experiment. (See FIG. 15).

The test system of data set [10] is MycCap tumor. Briefly: MycCap FVB allograft model, combination with anti-PD-1 immunotherapy. The class given is in vivo, FVB mice. The following applies: combination with anti-PD-1 antibody. The procedure:
MycCap FVB allograft model was treated with 361 (50 mg/kg) for two days, following by two days of anti-PD-1 antibody (100 ug/day), and kept this 4-day treatment cycle for 4 cycles. (See FIG. 16).

Data set [11] deals with MYC transcriptional activity (c-Myc E-box-luciferase reporter, MycCap cells). Briefly: MYC E-box luciferase reporter assay. The data set is classed as cell-based. The settings on record: 4 hours of treatment. In short, it runs like this: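 MycCap cells stably carrying c-Myc E-box-luciferase reporter, with CMV-luciferase MycCap-luc as counterpart, seeded 10000 cells/well and treated next day with serial compound dilutions. Luminescence read at 4 h immediately after adding 150 μg/ml luciferin.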
For orientation: In a reporter assay the amount or activity of a reporter protein is the signal.

Chain of MYC/Max binding to DNA (P01106 whole entry): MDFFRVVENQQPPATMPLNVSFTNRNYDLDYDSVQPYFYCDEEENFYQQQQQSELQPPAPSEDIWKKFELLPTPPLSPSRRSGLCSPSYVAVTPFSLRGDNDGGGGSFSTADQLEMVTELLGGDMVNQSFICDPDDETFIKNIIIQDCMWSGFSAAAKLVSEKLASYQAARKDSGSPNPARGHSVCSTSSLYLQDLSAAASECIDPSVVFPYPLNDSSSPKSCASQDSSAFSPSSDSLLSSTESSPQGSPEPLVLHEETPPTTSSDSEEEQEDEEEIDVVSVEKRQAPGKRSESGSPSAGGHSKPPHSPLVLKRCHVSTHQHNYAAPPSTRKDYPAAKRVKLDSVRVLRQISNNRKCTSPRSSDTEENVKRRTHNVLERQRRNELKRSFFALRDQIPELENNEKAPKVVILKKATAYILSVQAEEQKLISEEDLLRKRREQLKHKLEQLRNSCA

Regarding `CCCCOc1ccc(-c2cc(C(F)(F)F)n[nH]2)c(O)c1-c1cc(C(F)(F)F)cc(C(F)(F)F)c1` [NU031], in the data set with MV411 cells xenograft, the “anti-tumor effect in combination with Ara-C” value (“anti-tumor effect” below) is on record as “significant difference compared to control group”.

For `Cn1nc(C(F)(F)F)cc1-c1ccc(OCc2ccc(Cl)cc2)c(-c2ccc(Cl)c(C(F)(F)F)c2)c1O` [NU975], the “anti-tumor effect” value with MV411 cells xenograft is given as “significant difference compared to control group”.

Consider `CCc1ccc(Oc2c[nH]nc2-c2ccc(OCc3cnn(-c4ccccc4)c3)cc2O)cc1` [NUCC-0176234], for which, in the data set with DNA damage (rH2AX), the DNA damage result is reported as “essentially no DNA damage”. In addition, the “inhibition of MYC/Max (c-MYC) binding to DNA” value at MYC/Max binding to DNA (in words) is given as “prevent c-MYC/DNA binding”. The Potency code result in data set [1] is recorded as “+ (>40 +)”. Further, the “cell viability, WT line versus KO cells” value in data set [2] is recorded as “reduces cell viability much more in the WT line than the KO cells”.

In the case of `CCc1ccc(Oc2c(-c3ccc(OCc4ccc(Cl)cc4)cc3O)n[nH]c2C(F)(F)F)cc1` [NUCC-0176242], in data set [3], the “in vivo metabolism (plasma concentration versus time)” value is “correlated well with the observed in vitro metabolism”. The “metabolism by mouse S9 fraction” value in data set [4] is recorded as “significantly metabolism by the mouse S9 fraction versus NUCC-176248”. Further, in data set [1], the Potency code result is on record as “++ (30-40 ++)”.

With `CCc1ccc(Oc2c(-c3ccc(OCc4ccc(Cl)cc4)cc3O)nn(C)c2C(F)(F)F)cc1` [NUCC-0176248], in data set [5], the “selectivity of growth inhibition, MYC WT versus MYC KO” value is “high specificity”. Besides, the “in vivo metabolism (plasma concentration versus time)” value in data set [3] is “correlated well with the observed in vitro metabolism”. For the same compound, in data set [1], the Potency code result is on record as “+ (>40 +)”.

`CCc1ccc(Oc2c(-c3ccc(OCc4ccncc4)cc3O)n[nH]c2C(F)(F)F)cc1` [NUCC-0176250]: in data set [5], the “selectivity of growth inhibition, MYC WT versus MYC KO” value is given as “great selectivity”. Besides, the Potency code entry in [1] was “+ (>40 +)”.

On to `CCc1ccc(Oc2c(-c3ccc(OCc4cccc(Cl)c4)cc3O)n[nH]c2C(F)(F)F)cc1` [NUCC-0196295], for which, at MYC/Max binding to DNA, the IC50 (as a rule, the concentration at which inhibition is half-maximal) worked out at 66.8 µM. Also, the Potency code result in data set [1] was “+++ (10-30 +++)”.

In the case of `Cn1nc(C(F)(F)F)cc1-c1ccc(OCc2ccc(Cl)cc2)c(-c2cc(C(F)(F)F)cc(C(F)(F)F)c2)c1O` [NUCC-0196361], the “MLM % at 60 min” value in [6] is 72.9%. In addition, the Potency code entry in data set [1] was “++++ (<10 ++++)”. Further, the fraction unbound (usually the share of the substance not bound to proteins or other matrix) in [7] was under 0.001.

Turning to `CCOC(=O)c1cc(-c2ccc(OCc3ccc(Cl)cc3)c(-c3cc(C(F)(F)F)cc(C(F)(F)F)c3)c2O)n[nH]1` [NUCC-0200972], the “MLM % at 60 min” value in [6] came to 60.3%. In addition, in data set [1], the Potency code result is recorded as “+ (>40 +)”. Further, the fraction unbound in [7] was under 0.001.

For `Cn1nc(C(F)(F)F)cc1-c1ccc(OCc2ccc(Cl)cc2)cc1C=O` [NUCC-0200976], in data set [6], the “MLM % at 60 min” value is given as 21.8%. Moreover, the Potency code entry in data set [1] is given as “+ (>40 +)”. For the same compound, the fraction unbound in data set [7] is under 0.001.

Regarding `Oc1c(-c2cc(C(F)(F)F)n[nH]2)ccc(OCCN2CCCC2)c1-c1cc(C(F)(F)F)cc(C(F)(F)F)c1` [NUCC-0201032], in [6], the “MLM % at 60 min” value is given as 30.5%. In addition, the Potency code entry in data set [1] was “+ (>40 +)”. Besides, the fraction unbound in [7] was under 0.001.

Turning to `CC(C)CCOc1ccc(-c2cc(C(F)(F)F)n[nH]2)c(O)c1-c1cc(C(F)(F)F)cc(C(F)(F)F)c1` [NUCC-0201198], the IC50 came out at 8.2 µM in the data set on PC12 cells (Rattus norvegicus, PC-12) and 2.6 µM with MycCap cells (Mus musculus, Myc-CaP). The Potency code result in [1] is “+++ (10-30 +++)”.

On to `O=C1CCC(N2C(=O)c3cccc(OCc4cn(CCOCCOCCOCC(=O)Nc5ccc(COc6ccc(-c7cc(C(F)(F)F)n[nH]7)c(O)c6-c6cc(C(F)(F)F)cc(C(F)(F)F)c6)cc5)nn4)c3C2=O)C(=O)N1` (centres unmarked) [NUCC-0201202], for which the figures for the IC50 in the data set on PC12 cells and with MycCap cells were 23.1 µM and 4 µM, respectively. In [1], the Potency code entry was “+++ (10-30 +++)”.

On to `O=C1CCC(N2C(=O)c3cccc(OCc4cn(CCOCCOCCOCCOCC(=O)Nc5ccc(COc6ccc(-c7cc(C(F)(F)F)n[nH]7)c(O)c6-c6cc(C(F)(F)F)cc(C(F)(F)F)c6)cc5)nn4)c3C2=O)C(=O)N1` (centres unmarked) [NUCC-0201203], for which the Potency code result in [1] was “++ (30-40 ++)”. For the same compound, in the data set with MycCap cells, half-maximal inhibition (IC50) was put at 32.4 µM.

`Cn1nc(C(F)(F)F)cc1-c1ccc(OCc2ccc(Cl)cc2)c(-c2cc(C(F)(F)F)cc(C(F)(F)F)c2)c1O` [compound 361]: in data set [8], the “proliferation of PC3” value is listed as “specifically inhibits proliferation”. Besides, the tumor volume entry in the data set on MycCap tumor [9] was “reduces tumor volume”. Moreover, the tumor progression result with MycCap tumor [10] is given as “significantly blocks tumor progression”. Also, the c-Myc transcription activity entry in data set [11] was “inhibits c-Myc transcription activity as an early event before affecting cell viability”.

For the compound `Cn1nc(C(F)(F)F)cc1-c1ccc(OCc2ccc(Cl)cc2)c(-c2ccc(Cl)c(C(F)(F)F)c2)c1O` [compound 975], the “anti-tumor effect” value in the data set with MV411 cells xenograft is “significant synergic anti-tumor effect”.

Values taken from patent US20200392116A1, “SUBSTITUTED HETEROCYCLES AS c-MYC TARGETING AGENTS” (NORTHWESTERN UNIVERSITY, priority 2019, published 2020).
